Laboratory results reported in patent US20230061456A1, “METHODS AND COMPOSITIONS FOR GENERATING TYPE 1 VESTIBULAR HAIR CELLS” (Decibel Therapeutics, Inc., priority 2020, published 2023).

What was measured:
[1] = tested on: SPP1 (a Type I HC marker) positive cells in cultured utricles; test: SPP1 induction by vitamin A in cultured embryonic and adult utricles; assay type: cell-based, mouse; details: 0.1 μM
Protocol: To further explore these differences of the effect of the retinoic acid pathway on embryonic and adult hair cells, we compared the effects of 0.1 μM vitamin A on cultured utricles from embryonic and adult animals.

[2] = tested on: hair cells of embryonic utricles from E15.5 CD1 mice; test: scRNAseq of cultured embryonic utricles with vitamin A; assay type: cell-based, mouse; details: E15.5 CD1 utricles; 0.1 μM; 4 days in culture
Protocol: To evaluate the potential for this pathway to modulate type I hair cell fate, we dissected and cultured embryonic utricles from E15.5 CD1 mice in the presence or absence of 0.1 μM vitamin A (retinoic acid precursor). After 4 days in culture the cells were dissociated, and single cells were captured for scRNAseq. Downstream analysis of the scRNAseq data was performed and representative transcripts used to define type I hair cells (Kcna10 and Lpgat1) and type II hair cells (Mgst3 and DIk2) were selected from the data.

## vitamin A
[1]
  number of SPP1-positive cells, embryonic tissue: dramatically increased
[2]
  expression of transcripts typically associated with type I hair cells (Kcna10, Lpgat1): increased expression
  expression of transcripts typically associated with type II hair cells (Mgst3, Dlk2): decreased expression
